Experiment: Testing of the NIR sensitizers in photoinitiator mixtures (exposure of thin coats with halogen lamp)
Details: 0.5% by weight NIR sensitizer and 1.5% by weight boronate salt X in the paint base materials
Method: The two aforementioned paint base materials were admixed with 0.5% by weight of each NIR sensitizer and 1.5% by weight of the boronate salt X^− and the mixtures were stirred intensively. Thin coats (coat thickness approximately 50 μm) were produced with the resulting mixtures between two glass plates, using spacer sheets. These coats were exposed using a 250 W halogen lamp (distance approximately 15 cm) for 1 minute.

Row | SMILES | dissolution of the NIR sensitizer in the paint base material
1 | CCN1/C(=C/C=C2\CCCC(/C=C/C3=[N+](CC)c4ccc(C(F)(F)F)cc4C3(C)C)=C2Cl)C(C)(C)c2cc(C(F)(F)F)ccc21 [Compound A11] | fully dissolved
2 | CCN1/C(=C/C=C2\CCCC(/C=C/C3=[N+](CC)c4ccc(C#N)cc4C3(C)C)=C2Cl)C(C)(C)c2cc(C#N)ccc21 [Compound B12] | not completely dissolved
3 | CCN1/C(=C/C=C2\CCCC(/C=C/C3=[N+](CC)c4ccc(C(F)(F)F)cc4C3(C)C)=C2Cl)C(C)(C)c2cc(C(F)(F)F)ccc21 [Compound B11] | not completely dissolved
4 | CCN1/C(=C/C=C2\CCCC(/C=C/C3=[N+](CC)c4ccc(C#N)cc4C3(C)C)=C2Cl)C(C)(C)c2cc(C#N)ccc21 [Compound A12] | fully dissolved
5 | CN1\C(=C/C=C/C=C/C=C/C2=[N+](C)c3ccc(Cl)cc3C2(C)C)C(C)(C)c2cc(Cl)ccc21 [Compound A7] | fully dissolved
6 | CN1\C(=C/C=C/C=C/C=C/C2=[N+](C)c3ccc(Cl)cc3C2(C)C)C(C)(C)c2cc(Cl)ccc21 [Compound B7] | not completely dissolved

— patent US20100126386A1, “RADIATION-CURABLE COATING SUBSTANCES” (Basf Aktiengesellschaft, priority 2004, published 2010)
